# Source: patent US4985440A, “Hypolipidaemic imidazol-2-yl-derivatives of bicyclic compounds” (priority 1988, dated 1991)
# What was measured:
# [1] = Serum lipid lowering in male rats on standard diet (Table 1, activity as % variation vs. controls); type: in vivo, Iva:SDIV (SPF) male rats; settings: rat, 50 mg/kg/os, 4 days by stomach tube, * p ≤ 0.05, ** p ≤ 0.01; for Triglycerides, activity as % variation vs. controls: serum triglycerides; for Tot. Chol., activity as % variation vs. controls: total serum cholesterol
# Experimental: The activity of compounds of this invention was evaluated on Groups of Iva:SDIV (SPF) male rats fed standard diet (Altromin^R).
# The compounds were suspended in "Methocel" (methyl cellulose, a 0.5% pseudosolution in water) and administered by stomach tube for 4 days.
# Groups of animals were treated with the suspending agent only (control groups).
# The total serum cholesterol was determined with the method of Allain C. C. (Clin. Chem. 20, 470, 1974).
# The serum triglycerides were determined with the method of Spayd R. N. (Clin. Chem. 24, 1343, 1978).
# The total serum HDL cholesterol was determined according to Demacker P. N. M. [Clin. Chem., 23, 1238 (1977)].
# W. - J. Amer. Stat. Ass., 50, 1096 (1955)].
# ACAT = settings: rabbit arterial microsomes; Hudson H., Day A., Atherosclerosis (1982) 45, 109; cited from earlier work
# [2] = target: T1, acyl CoA: cholesterol acyltransferase (ACAT-EC 2.3.1.26) (Oryctolagus cuniculus, UniProt A0A5F9CPP4); experiment: ACAT inhibition in microsomes from atherosclerotic rabbit thoracic aortas (Table 2); type: biochemical
# T1 construct: microsomal preparations from atherosclerotic rabbit thoracic aorta (intimamedia); from tissue; host or cells: microsomes of atherosclerotic rabbit thoracic aorta (intima-media)
# T1 sequence (A0A5F9CPP4 1-555): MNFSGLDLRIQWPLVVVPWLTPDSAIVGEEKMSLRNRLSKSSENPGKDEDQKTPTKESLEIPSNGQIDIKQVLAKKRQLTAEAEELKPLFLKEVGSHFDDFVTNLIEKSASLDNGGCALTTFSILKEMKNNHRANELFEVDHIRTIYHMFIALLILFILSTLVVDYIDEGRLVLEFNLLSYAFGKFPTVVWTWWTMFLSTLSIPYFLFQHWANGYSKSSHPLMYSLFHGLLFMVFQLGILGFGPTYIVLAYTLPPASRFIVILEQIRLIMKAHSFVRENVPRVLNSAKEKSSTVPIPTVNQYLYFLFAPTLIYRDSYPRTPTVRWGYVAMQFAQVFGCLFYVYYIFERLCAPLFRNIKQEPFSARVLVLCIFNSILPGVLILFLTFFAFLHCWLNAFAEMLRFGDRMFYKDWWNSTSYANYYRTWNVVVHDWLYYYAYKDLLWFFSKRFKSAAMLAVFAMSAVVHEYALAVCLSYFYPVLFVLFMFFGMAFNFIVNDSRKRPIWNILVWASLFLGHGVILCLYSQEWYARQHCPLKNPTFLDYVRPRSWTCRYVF
"IC50 ([2]; microsomes from atherosclerotic rabbit thoracic aortas (intimamedia), limits p = 0.95) [nM]","potency in ACAT inhibition relative to Bezafibrate (times more potent) ([2]; ratio of IC50 values, vs. Bezafibrate)",Compound,"HDL/LDL + VLDL Chol. ratio, activity as % variation vs. controls [1]","LDL + VLDL Chol., activity as % variation vs. controls [1] [%]","Triglycerides, activity as % variation vs. controls [1] [%]","Tot. Chol., activity as % variation vs. controls [1] [%]",inhibitory activity in vitro (in words) (ACAT)
,,"CCOC(=O)C(C)(C)CCCOc1ccc2c(c1)C=C(c1nccn1C)CC2 [FCE 25390, ethyl 5-[5,6-dihydro-7-(1-methyl-1H-imidazol-2-yl)naphthalen-2yl]oxy-2,2-dimethylpentanoate]",+96%,-59,-58,-36,
,,"CCOC(=O)C(C)(C)CCCOc1ccc2c(c1)C=C(c1nccn1C)C(C)O2 (stereo not drawn) [FCE 25086, ethyl 5-[2-methyl-3-(1-methyl-1H-imidazol-2-yl)-2H-1-benzopyran-6yl]oxy-2,2-dimethylpentanoate]",+135%,-55,-53,-14,
,,CC(C)(Oc1ccc(CCNC(=O)c2ccc(Cl)cc2)cc1)C(=O)O [Bezafibrate],,,,,inhibitory activity in vitro (rabbit arterial microsomes) has been already demonstrated
1060,about 500 times,"CCCC1Oc2ccc(OCCCC(C)(C)C(=O)OCC)cc2C=C1c1nccn1C (stereo not drawn) [FCE 25184, ethyl 5-[3-(1-methyl-1H-imidazol-2-yl)-2-n-propyl-2H-1-benzopyran-6-yl]oxy-2,2-dimethylpentanoate]",,,,,
,,"CCOC(=O)C(C)(C)Oc1ccc(Cl)cc1 [Clofibrate, reference compound]",+18%,-19,-22,-11,
